How the values were obtained:
[1] = target: T1, YtvA (Bacillus subtilis, UniProt O34627, M1G); test: fluorescence enhancement on adding protein ([…] YtvA, […] dye); type: binding
T1 construct: gene pfyP; full-length YtvA and isolated STAS domain (amino acids 148–261)
T1 sequence (O34627 1-261 M1G): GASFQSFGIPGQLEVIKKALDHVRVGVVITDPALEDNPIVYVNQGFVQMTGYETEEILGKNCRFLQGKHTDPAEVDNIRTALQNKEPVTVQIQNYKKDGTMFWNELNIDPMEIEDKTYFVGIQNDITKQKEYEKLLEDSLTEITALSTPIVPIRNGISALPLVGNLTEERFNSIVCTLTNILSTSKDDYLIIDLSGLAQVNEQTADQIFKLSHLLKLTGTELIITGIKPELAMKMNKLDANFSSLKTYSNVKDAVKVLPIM

[2] = target: T2, YtvA (Bacillus subtilis, UniProt O34627, M1G); test: ITC; also 1H-15N TROSY/HSQC, STD and WaterLOGSY NMR, fluorescence; type: binding
T2 construct: gene pfyP; full-length YtvA (Met1 replaced by Gly)

Row | Compound | fluorescence enhancement on adding protein (12 μM YtvA, 2.2 μM dye) [1] | Kd [2]
1 | COC(=O)COc1ccc(-c2ccc3n2[B-](F)(F)[N+]2=C(c4cccs4)C=CC2=C3)cc1 [BODIPY methyl ester] | This suggests that only the fluorophore is binding to the protein but the GTP part does not. | –
2 | Nc1nc2c(ncn2[C@@H]2O[C@H](COP(=O)(O)OP(=O)(O)OP(=O)(O)O)[C@@H](O)[C@H]2OC(=O)NCCNC(=O)COc2ccc(C3=[N+]4C(=Cc5ccc(-c6cccs6)n5[B-]4(F)F)C=C3)cc2)c(=O)[nH]1 [BODIPY-GTP] | – | 2.5 µM
